The values that follow come from patent US9169247B2, “Tetrahydro-beta-carboline derivatives, synthesis and use thereof” (Southern Research Institute, priority 2009, dated 2015).

Read-outs that look alike come from different tables or passages of the source.

Series [1] has as its system human MDA-MB-231 breast tumor cells. Briefly: Growth assay (Cell Titer Glo). The class given is cell-based. To be noted: for inhibition at 10 µM / % Growth Inhibition at 10 μM: mean +/− spread. On the procedure:
(§1) All human tumor cell lines were obtained from ATCC and grown under standard cell culture conditions at 37° C. in a humidified atmosphere with 5% CO2. Cells were grown in RPMI 1640 supplemented with 5% fetal bovine serum 2 mM glutamine, 100 units/ml penicillin, 100 units/ml streptomycin, and 0.25 μg/ml amphotericin. Cells were harvested at 70 to 90% confluence with trypsin/EDTA and used immediately Cell count and viability was determined by Trypan blue staining followed by hemocytometry. Only cultures displaying >95% cell viability were used for experiments. HMEC were grown according to the specifications from the supplier (Lonzo).
(§2) Tissue culture microtiter 96-well plates were seeded with cells at a density of 5,000 cells/well. The plates were incubated for 18-24 hours prior to any treatment. All test compounds were solubilized in 100% DMSO and diluted with media to obtain a final DMSO concentration of 0.1%. Cell viability was measured 72 hours after treatment by the Cell Titer Glo Assay (Promega), which is a luminescent assay that is an indicator of live cells as a function of metabolic activity and ATP content. The assay was performed according to manufacturer's specifications. Luminescence was measured by a Perkin Elmer Victor® multi-label plate reader.^6
(§3) Dose response curves were analyzed using Prism™ 4 software (GraphPad) to calculate IC50 values using a four parameter logistic equation.
For orientation: ATP-based viability assays read luminescence as a measure of living cells.

Series [2] deals with HT-29. Briefly: Growth assay (Cell Titer Glo). The class given is cell-based, human. To be noted: HT-29 colon. On the procedure:
Compounds 2a-h were tested for tumor cell growth inhibitory activity using the human breast MDA-MB-231 and ZR75-1 tumor cell lines and the colon CACO-2, SW-1116, and HT-29 tumor cell lines.
as §1, §2, §3

Setting [3] is: Homo sapiens, MDA-MB-231, MDA-MB-231.
Setting [4] is: Homo sapiens, MDA-MB-231, 72 h, MDA-MB-231 breast, 72 h, Tables 3-5, read-out: IC50 value, μM, growth.
[5] abbreviates: MDA-MB-231, Tables 1 and 2, read-out: Growth Inhibition IC50, μM (95% CI).
[6] abbreviates: MDA-MB-231 breast, 72 h, Tables 3-5, read-out: IC50 value, μM, growth.
[7] abbreviates: Homo sapiens, MDA-MB-231, MDA-MB-231, Tables 1 and 2, read-out: Growth Inhibition IC50, μM (95% CI).

A word on the inhibition: it is the drop in the measured response relative to a control, in per cent. High values mean a response far below the control, low ones a response near the control. By melting point is commonly meant the temperature, or range, at which the solid turns liquid. `COC(=O)[C@H]1Cc2c([nH]c3ccccc23)[C@@H](c2ccc(Cl)cc2Cl)N1` [Compound 1i, (1R,3R) Methyl-1-(2,4-dichlorophenyl)-2,3,4,9-tetrahydro-1H-β-carboline-3-carboxylate]: the melting point was 88 to 92 °C. In series [1] (setting [3]), this compound displayed an inhibition at 10 µM of 29%.
One may read the IC50 as the concentration that inhibits the measured activity by half. `COC(=O)[C@H]1Cc2c([nH]c3ccccc23)[C@H](c2ccc(Cl)c(Cl)c2)N1C(=O)CCl` [Compound 2n, (1S,3R) Methyl 1-(3,4dichlorophenyl)-2-(2-chloroacetyl)-2,3,4,9-tetrahydro-1H-β-carboline-3-carboxylate]: the melting point fell in the range of 163 to 165 °C. Further, the IC50 in series [1] (setting [4]) came to 1.2 µM. In series [1] (setting [3]), the inhibition at 10 µM was 50%. Further, in series [2] (Homo sapiens, HT-29, 72 h), the IC50 is above 10 µM.
Take `COC(=O)C1Cc2c([nH]c3ccccc23)C(c2c(Cl)cccc2Cl)N1C(=O)CCl` [Compound 2r, (1S,3S) Methyl 1-(2,6-dichlorophenyl)-2-(2-chloroacetyl)-2,3,4,9-tetrahydro-1H-β-carboline-3-carboxyl]: the melting point fell in the range of 153 to 156 °C. For the same compound, in series [1] (MDA-MB-231), the “% Growth Inhibition at 10 μM” value was 24 +/− 0.54%. Besides, in series [1] (setting [5]), the IC50 worked out at 0.42 µM. For the same compound, the IC50 in series [1] (setting [6]) was 0.44 µM. In series [2] (72 h), this compound yielded a concentration for half-maximal inhibition (IC50) of 1 µM.
Take `COC(=O)[C@H]1Cc2c([nH]c3ccccc23)[C@H](c2ccc(Cl)c(Cl)c2)N1` [Compound 1n, (1S,3R) Methyl-1-(3,4-dichlorophenyl)-2,3,4,9-tetrahydro-1H-β-carboline-3-carboxylate]: the melting point is 140 to 143 °C. Moreover, the inhibition at 10 µM in series [1] (setting [3]) was 100%. In addition, the IC50 in series [1] (setting [7]) came out at 4.62 µM.
Regarding `COC(=O)[C@@H]1Cc2c([nH]c3ccccc23)[C@H](c2c(Cl)cccc2Cl)N1` [Compound 1r, (1S,3S) Methyl 1-(2,6-dichlorophenyl)-2,3,4,9-tetrahydro-1H-β-carboline-3-carboxylate], the melting point was 101 to 103 °C. The same compound had an inhibition at 10 µM in series [1] (setting [3]) of 52%.
Compound `COC(=O)[C@@H]1Cc2c([nH]c3ccccc23)[C@H](c2ccc(Cl)c(Cl)c2)N1C(=O)CCl` [Compound 2o, (1S,3S) Methyl 1-(3,4-dichlorophenyl)-2-(2-chloroacetyl)-2,3,4,9-tetrahydro-1H-β-carboline-3-carboxylate] had a melting point of 283 to 284 °C. Further, the IC50 in series [1] (setting [4]) is above 10 µM. This compound came in with an inhibition at 10 µM in series [1] (setting [3]) of 43%.
Regarding `COC(=O)[C@@H]1Cc2c([nH]c3ccccc23)[C@@H](c2ccc(Cl)cc2Cl)N1C(=O)CCl` [Compound 2l, (1R,3S) Methyl 1-(2,4-dichlorophenyl)-2-(2-chloroacetyl)-2,3,4,9-tetrahydro-1H-β-carboline-3-carboxylate], the melting point lay within 109 to 112 °C. Besides, the IC50 in series [1] (setting [4]) was 1.24 µM. Besides, the inhibition at 10 µM in series [1] (setting [3]) was 98%. Further, in series [1] (setting [7]), the IC50 was 1.24 µM.
`COC(=O)[C@@H]1Cc2c([nH]c3ccccc23)[C@H](c2ccc(Cl)cc2Cl)N1C(=O)CCl` [Compound 2k, (1S,3S) Methyl 1-(2,4dichlorophenyl)-2-(2-chloroacetyl)-2,3,4,9-tetrahydro-1H-β-carboline-3-carboxylate] displayed a melting point of 215 to 218 °C. Moreover, in series [1] (setting [4]), the IC50 was found to be 0.38 µM. In series [1] (setting [3]), 10 µM produced 55% inhibition.
As for `COC(=O)[C@H]1Cc2c([nH]c3ccccc23)[C@H](c2cc(OC)ccc2OC)N1` [Compound 1f, (1S,3R) Methyl 1-(2,5-dimethoxyphenyl)-2,3,4,9-tetrahydro-1H-β-carboline-3-carboxylate], the melting point was in the range of 139 to 142 °C.
`COC(=O)[C@H]1Cc2c([nH]c3ccccc23)[C@H](c2ccc(Cl)cc2Cl)N1` [Compound 1j, (1S,3R) Methyl 1-(2,4-dichlorophenyl)-2,3,4,9-tetrahydro-1H-β-carboline-3-carboxylate] came in with a melting point of 130 to 133 °C. This compound displayed an inhibition at 10 µM in series [1] (setting [3]) of 78%. For the same compound, the IC50 in series [1] (setting [7]) is 6.73 µM.
Turning to `COC(=O)[C@@H]1Cc2c([nH]c3ccccc23)[C@@H](c2ccc(Cl)c(Cl)c2)N1C(=O)CCl` [Compound 2p, (1R,3S) Methyl 1-(3,4-dichloro-phenyl)-2 (2-chloroacetyl)-2,3,4,9-tetrahydro-1H-β-carboline-3-carboxylate], the melting point was in the range of 162 to 165 °C. In series [1] (setting [4]), the IC50 is above 10 µM. In addition, at 10 µM the inhibition in series [1] (setting [3]) was 55%. In series [2] (Homo sapiens, HT-29, 72 h), this compound displayed an IC50 above 10 µM.
As to `COC(=O)[C@@H]1Cc2c([nH]c3ccccc23)[C@@H](c2ccc(Cl)c(Cl)c2)N1` [Compound 1p, (1R,3S)Methyl-1-(3,4-dichlorophenyl)-2,3,4,9-tetrahydro-1H-β-carboline-3-carboxylate], the melting point is 139 to 142 °C. The same compound showed an inhibition at 10 µM in series [1] (setting [3]) of 48%.
`COC(=O)[C@@H]1Cc2c([nH]c3ccccc23)[C@@H](c2ccc(Cl)cc2Cl)N1` [Compound 1l, (1R,3S)Methyl 1-(2,4-dichlorophenyl)-2,3,4,9-tetrahydro-1H-β-carboline-3-carboxylate] came in with a melting point of 128 to 130 °C. The same compound yielded an inhibition at 10 µM in series [1] (setting [3]) of 28%.
`COC(=O)[C@@H]1Cc2c([nH]c3ccccc23)[C@@H](c2cc(OC)ccc2OC)N1` [Compound 1h, (1R,3S) Methyl 1-(2,5-dimethoxyphenyl)-2,3,4,9-tetrahydro-1H-β-carboline-3-carboxylate] returned a melting point of 138 to 141 °C.
Compound `COC(=O)[C@H]1Cc2c([nH]c3ccccc23)[C@@H](c2ccc(Cl)cc2Cl)N1C(=O)CCl` [Compound 2i, (1R,3R) Methyl 1-(2,4-dichlorophenyl)-2-(2-chloroacetyl)-2,3,4,9-tetrahydro-1H-β-carboline-3-carboxylate] registered a melting point of 215 to 218 °C. In addition, the IC50 in series [1] (setting [4]) was determined as 0.56 µM. Testing at 10 µM in series [1] (setting [3]) gave an inhibition of 98%. Further, the IC50 in series [1] (setting [7]) was 0.56 µM.
In turn, `COC(=O)[C@H]1Cc2c([nH]c3ccccc23)[C@@H](c2ccc(Cl)c(Cl)c2)N1C(=O)CCl` [Compound 2m, (1R,3R) Methyl 1-(3,4-dichlorophenyl)-2-(2-chloroacetyl)-2,3,4,9-tetrahydro-1H-β-carboline-3-carboxylate] came in with a melting point of 283 to 285 °C. Further, the IC50 in series [1] (setting [4]) was above 10 µM.
The compound `COC(=O)[C@@H]1Cc2c([nH]c3ccccc23)[C@H](c2cc(OC)ccc2OC)N1` [Compound 1g, (1S,3S) Methyl 1-(2,5-dimethoxyphenyl)-2,3,4,9-tetrahydro-1H-β-carboline-3-carboxylate] had a melting point of 100 to 102 °C.
Consider `COC(=O)[C@H]1Cc2c([nH]c3ccccc23)[C@@H](c2cc(OC)ccc2OC)N1` [Compound 1e, (1R,3R) Methyl 1-(2,5-dimethoxyphenyl)-2,3,4,9-tetrahydro-1H-β-carboline-3-carboxylate], for which the melting point was 102 to 105 °C.
For the compound `COC(=O)[C@H]1Cc2c([nH]c3ccccc23)[C@@H](c2c(Cl)cccc2Cl)N1` [Compound 1q, (1R,3R) Methyl 1-(2,6-dichlorophenyl)-2,3,4,9-tetrahydro-1H-β-carboline-3 carboxylate], the melting point is 102 to 105 °C.
As to `COC(=O)C1Cc2c([nH]c3ccccc23)C(c2c(Cl)cccc2Cl)N1C(=O)CCl` [Compound 2q, (1R,3R) Methyl 1-(2,6-dichlorophenyl)-2-(2-chloroacetyl)-2,3,4,9-tetrahydro 1H-β-carboline-3-carboxylate], the melting point was 147 to 150 °C. Besides, the “% Growth Inhibition at 10 μM” value in series [1] (MDA-MB-231) is listed as 99 +/− 0.01%. For the same compound, the IC50 in series [1] (setting [5]) amounted to 0.05 µM. For the same compound, in series [1] (setting [6]), the IC50 turned out to be 0.04 µM. For the same compound, in series [2] (Homo sapiens, HT-29, 72 h), inhibition was half-maximal at 1.5 µM (IC50).
Compound `COC(=O)[C@@H]1Cc2c([nH]c3ccccc23)[C@H](c2ccc(Cl)cc2Cl)N1` [Compound 1k, (1S,3S)Methyl 1-(2,4-dichlorophenyl)-2,3,4,9-tetrahydro-1H-β-carboline-3-carboxylate] returned a melting point of 90 to 92 °C. This compound registered an inhibition at 10 µM in series [1] (setting [3]) of 50%.
Turning to `COC(=O)[C@@H]1Cc2c([nH]c3ccccc23)[C@H](c2ccc(Cl)c(Cl)c2)N1` [Compound 1o, (1S,3S) Methyl-1-(3,4-dichlorophenyl)-2,3,4,9-tetrahydro-1H-β-carboline-3-carboxylate], the melting point is 88 to 91 °C. The inhibition at 10 µM in series [1] (setting [3]) was determined as 62%. In addition, the IC50 in series [1] (setting [7]) came to 6.98 µM.
The compound `COC(=O)[C@H]1Cc2c([nH]c3ccccc23)[C@@H](c2ccc(Cl)c(Cl)c2)N1` [Compound 1m, (1R,3R) Methyl-1-(3,4-dichlorophenyl)-2,3,4,9-tetrahydro-1H-β-carboline-3-carboxylate] came in with a melting point of 90 to 92 °C. In addition, testing at 10 µM in series [1] (setting [3]) gave an inhibition of 43%.
